Measurements taken from the NIST ThermoML archive (doi:10.1016/j.tca.2006.05.010).

Key:
[1] = molar heat capacity at constant pressure; xn = mol fraction of the nth substance listed; details: 308.15 K, 101 kPa, Liquid, Small sample (50 mg) DSC
[2] = excess molar enthalpy (molar enthalpy of mixing); xn = mol fraction of the nth substance listed; details: 308.15 K, 101 kPa, Liquid, Flow calorimetry
[3] = refractive index (Na D-line) (dimensionless); details: 101.33 kPa, Liquid, Standard Abbe refractometry
[4] = molar heat capacity at constant pressure; details: 101.33 kPa, Liquid, Small sample (50 mg) DSC
[5] = 101.33 kPa, Liquid, Vibrating tube method

C1COCCO1 [1,4-dioxane] + C[S+](C)[O-]
Details | excess molar enthalpy [kJ/mol] | molar heat capacity at constant pressure [J/K/mol]
[1], x2 = 0.0749 | – | 154.8
[1], x2 = 0.1148 | – | 155.1
[1], x2 = 0.2112 | – | 155.5
[1], x2 = 0.313 | – | 155.4
[1], x2 = 0.4096 | – | 155.1
[1], x2 = 0.5185 | – | 154.6
[1], x2 = 0.6108 | – | 153.9
[1], x2 = 0.6637 | – | 153.5
[1], x2 = 0.7064 | – | 153.2
[1], x2 = 0.8128 | – | 152.5
[1], x2 = 0.8952 | – | 152.7
[1], x2 = 0.9586 | – | 153.5
[2], x2 = 0.0478 | 0.133 | –
[2], x2 = 0.0911 | 0.222 | –
[2], x2 = 0.1308 | 0.281 | –
[2], x2 = 0.1671 | 0.32 | –
[2], x2 = 0.2313 | 0.365 | –
[2], x2 = 0.2863 | 0.386 | –
[2], x2 = 0.3757 | 0.409 | –
[2], x2 = 0.4451 | 0.417 | –
[2], x2 = 0.5462 | 0.404 | –
[2], x2 = 0.6437 | 0.383 | –
[2], x2 = 0.7066 | 0.356 | –
[2], x2 = 0.7831 | 0.31 | –
[2], x2 = 0.828 | 0.272 | –
[2], x2 = 0.8784 | 0.207 | –
[2], x2 = 0.9059 | 0.167 | –
[2], x2 = 0.9353 | 0.116 | –
[2], x2 = 0.9665 | 0.066 | –

C[S+](C)[O-] [dimethyl sulfoxide]
Details | mass density [kg/m3] | molar heat capacity at constant pressure [J/K/mol] | refractive index
[3], 298.15 K | – | – | 1.4775
[3], 308.15 K | – | – | 1.4729
[4], 293.15 K | – | 151.2 | –
[4], 298.15 K | – | 152.4 | –
[4], 303.15 K | – | 153.4 | –
[4], 308.15 K | – | 154.8 | –
[4], 313.15 K | – | 155.4 | –
[4], 318.15 K | – | 156.6 | –
[4], 323.15 K | – | 157.7 | –
[4], 328.15 K | – | 157.8 | –
[4], 333.15 K | – | 158.5 | –
[4], 338.15 K | – | 159.3 | –
[4], 343.15 K | – | 159.5 | –
[4], 348.15 K | – | 160.2 | –
[4], 353.15 K | – | 160.3 | –
[4], 358.15 K | – | 161.3 | –
[4], 363.15 K | – | 161.5 | –
[4], 368.15 K | – | 161.7 | –
[4], 373.15 K | – | 162.6 | –
[4], 378.15 K | – | 163.3 | –
[4], 383.15 K | – | 164.8 | –
[4], 388.15 K | – | 166.3 | –
[4], 393.15 K | – | 168.3 | –
[4], 398.15 K | – | 169.1 | –
[4], 403.15 K | – | 170.3 | –
[4], 408.15 K | – | 170.4 | –
[4], 413.15 K | – | 170.6 | –
[4], 418.15 K | – | 171.1 | –
[4], 423.15 K | – | 171.2 | –
[5], 298.15 K | 1095.58 | – | –
[5], 308.15 K | 1085.5 | – | –

C1CCOC1 [tetrahydrofuran]
Details | mass density, [5] [kg/m3] | molar heat capacity at constant pressure, [4] [J/K/mol] | refractive index, [3]
288.15 K | – | 121.1 | –
293.15 K | – | 123.8 | –
298.15 K | 881.9 | 126.4 | 1.4048
303.15 K | – | 128.5 | –
308.15 K | 870.99 | 131.4 | 1.4002
313.15 K | – | 133.2 | –
318.15 K | – | 135.2 | –
323.15 K | – | 136.6 | –

C1CCOC1 [tetrahydrofuran] + C[S+](C)[O-]
Details | excess molar enthalpy [kJ/mol] | molar heat capacity at constant pressure [J/K/mol]
[1], x2 = 0.0807 | – | 132.9
[1], x2 = 0.1171 | – | 133.6
[1], x2 = 0.2353 | – | 135.9
[1], x2 = 0.3233 | – | 137.7
[1], x2 = 0.4932 | – | 141.4
[1], x2 = 0.5284 | – | 142.3
[1], x2 = 0.5833 | – | 143.6
[1], x2 = 0.6359 | – | 144.9
[1], x2 = 0.7298 | – | 147.2
[1], x2 = 0.8269 | – | 149.8
[1], x2 = 0.893 | – | 151.6
[1], x2 = 0.9507 | – | 153.2
[2], x2 = 0.0457 | 0.213 | –
[2], x2 = 0.0875 | 0.372 | –
[2], x2 = 0.1257 | 0.49 | –
[2], x2 = 0.1608 | 0.579 | –
[2], x2 = 0.2233 | 0.699 | –
[2], x2 = 0.2771 | 0.765 | –
[2], x2 = 0.3651 | 0.853 | –
[2], x2 = 0.4339 | 0.87 | –
[2], x2 = 0.5349 | 0.874 | –
[2], x2 = 0.6332 | 0.839 | –
[2], x2 = 0.697 | 0.773 | –
[2], x2 = 0.7753 | 0.682 | –
[2], x2 = 0.8215 | 0.588 | –
[2], x2 = 0.8735 | 0.474 | –
[2], x2 = 0.902 | 0.4 | –
[2], x2 = 0.9325 | 0.291 | –
[2], x2 = 0.965 | 0.163 | –

C1CCOCC1 [tetrahydropyran]
Details | mass density [kg/m3] | molar heat capacity at constant pressure [J/K/mol] | refractive index
[3], 298.15 K | – | – | 1.4188
[3], 308.15 K | – | – | 1.4142
[4], 288.15 K | – | 143.9 | –
[4], 293.15 K | – | 146.3 | –
[4], 298.15 K | – | 147.9 | –
[4], 303.15 K | – | 149.7 | –
[4], 308.15 K | – | 151.7 | –
[4], 313.15 K | – | 154.3 | –
[4], 318.15 K | – | 156.5 | –
[4], 323.15 K | – | 159.1 | –
[4], 328.15 K | – | 161.6 | –
[4], 333.15 K | – | 164.2 | –
[5], 298.15 K | 879.31 | – | –
[5], 308.15 K | 868.85 | – | –

C1CCOCC1 [tetrahydropyran] + C[S+](C)[O-]
Details | excess molar enthalpy [kJ/mol] | molar heat capacity at constant pressure [J/K/mol]
[1], x2 = 0.0834 | – | 152.1
[1], x2 = 0.1416 | – | 152.4
[1], x2 = 0.2619 | – | 152.8
[1], x2 = 0.376 | – | 153.1
[1], x2 = 0.4572 | – | 153.5
[1], x2 = 0.5817 | – | 153.7
[1], x2 = 0.6249 | – | 153.8
[1], x2 = 0.659 | – | 153.8
[1], x2 = 0.7619 | – | 153.9
[1], x2 = 0.8405 | – | 154
[1], x2 = 0.9268 | – | 154.2
[1], x2 = 0.952 | – | 154.3
[2], x2 = 0.0543 | 0.376 | –
[2], x2 = 0.1148 | 0.67 | –
[2], x2 = 0.1469 | 0.781 | –
[2], x2 = 0.1867 | 0.896 | –
[2], x2 = 0.2562 | 1.02 | –
[2], x2 = 0.3146 | 1.09 | –
[2], x2 = 0.4079 | 1.14 | –
[2], x2 = 0.4786 | 1.17 | –
[2], x2 = 0.5708 | 1.13 | –
[2], x2 = 0.6739 | 1.03 | –
[2], x2 = 0.7337 | 0.946 | –
[2], x2 = 0.8051 | 0.796 | –
[2], x2 = 0.8464 | 0.685 | –
[2], x2 = 0.8921 | 0.508 | –
[2], x2 = 0.9168 | 0.412 | –
[2], x2 = 0.9429 | 0.295 | –
[2], x2 = 0.9706 | 0.157 | –
